Patent US4668397A, “Novel cyclic octapeptide, method for production of said octapeptide, and ion extracting/separating agent using said octapeptide as principal component” (Agency of Industrial Science & Technology, priority 1984, dated 1987)
Non-standard residues stand in square brackets, D forms with d. Residues, ends and D or L forms follow the SMILES beside them. *: point of attachment. Orn = NCCC[C@H](N)C(=O)O; Cbz = O=C(OCc1ccccc1)*; Boc = CC(C)(C)OC(=O)*; OBn = c1ccc(CO*)cc1; Sar = CNCC(=O)O

What was measured:
[1] = Ion transfer through chloroform phase between two water phases in a U-shaped tube; settings: for Amount of ions transferred: K, 200 μM in chloroform phase, pH 7.5, 10 hours; for transferring ability for potassium ion: from Table 2
Description: (§1) In a U-shaped tube 15 mm in inside diameter, two water phases (a), (b) (each 10 ml) were separated by an intervening chloroform phase (15 ml). In the water phase (a), a chloride of potassium ions and calcium ions (10 mM), picric acid (25 mM), and good buffer HEPES (10 mM) were dissolved and adjusted to pH 7.5 with lithium hydroxide. In the chloroform phase, the compound of this invention was dissolved in a concentration of 200 μM. The two water phases (a), (b) were stirred with a mechanical stirrer and the chloroform phase was stirred with a magnetic stirrer. After 10 hours of stirring, the amount of potassium ions or calcium ions which had been transferred from the water phase (a) through the chloroform phase into the water phase (b) was determined based on the absorption of picrate anion. For comparison, the procedure described above was repeated by using a naturally occurring calcium-ion ionophore A 23187, the cyclic tetrapeptide, i.e. cyclo(glycyl-ε-benzyloxycarbonyl-L-lysyl-sarcosyl-L-prolyl) (D-1), the linear octapeptide, i.e. tertiary butyloxycarbonylglycyl-ε-benzyloxycarbonyl-L-lysyl-sarcosyl-L-propyl-glycyl-ε-benzyloxycarbonyl-L-lysyl-sarcosyl-L-proline methyl ester (E-1), and using no substance dissolved in the chloroform phase.

[2] = Ion transfer through chloroform phase (liquid membrane) between two water phases in a U-shaped tube; settings: for Amount of ions transferred: Ca^2+, 200 μM in chloroform phase, pH 7.5, 10 hours; for transferring ability for calcium ion: from Table 2
Description: as §1

[3] = Extraction equilibrium constant, chloroform / aqueous metal ion chloride and picric acid, absorbance of picrate anion; settings: chloroform/water, pH 7.4, average of five concentrations
Description: The compound (C-1) of this invention obtained in Example 1 was dissolved in concentrations of […] in chloroform. Then 5-ml portions of each of the five solutions so prepared were mixed one each with 5-ml aqueous solutions (pH 7.4) of metallic ion chloride (10 mM), picric acid (25 mM), and good buffer HEPES (10 mM) and shaken for 30 minutes. The shaken mixtures were left stading for one hour. Then, based on the absorbance of picrate anion in the chloroform phase, the extraction equilibrium constants of the compound (C-1) of this invention for the various ions were determined. The results so obtained were compared with those of the comparative cyclic tetrapeptide, i.e. cyclo(glycyl-ε-benzyloxycarbonyl-L-lysyl-sarcosyl-L-prolyl) (D-1), and the linear octapeptide, i.e. tertiary butyloxycarbonylglycyl-ε-benzyloxycarbonyl-L-lysyl-sarcosyl-L-prolylglycyl-ε-benzyloxycarbonyl-[…]-L-proline methyl ester (E-1).
The results expressed as logarithms of the average values obtained by using the five chloroform solutions of varying concentration are shown in Table 1.

[4] = Solution extraction, separation from magnesium; settings: after extraction and recovery of calcium ion; sample with 1 g magnesium picrate
Description: (§2) The amount 100 ml of chloroform solution having dissolved therein 1 g of the compound (C-1) of this invention obtained in Example 1 and 100 ml of a sample solution containing 1 g of magnesium picrate and 100 mg of […] (adjusted to pH 6.9 with acetic acid and sodium acetate) were thoroughly shaken and then left standing for 30 minutes. From the resultant mixture, the chloroform phase was collected. The chloroform phase was washed with 100 ml of an aqueous solution containing 0.01M of lithium picrate (adjusted to pH 6.9 with acetic acid and sodium acetate), followed by collection of chloroform phase. This washing operation was repeated three times to collect the chloroform phase. This chloroform phase was thoroughly shaken with 100 ml of an aqueous solution containing 2M of ammonium chloride and 2M of hydrochloric acid. The shaken mixture was left standing at rest for 30 minutes, followed by collection of the aqueous phase. The aqueous phase was tested for recovery of calcium ion. […] At that time, the concentration of magnesium was 10^-3 times the initial concentration. Thus, by the method of solution extraction using the compound of this invention, calcium ions could be efficiently separated from a large amount of magnesium ions.

[5] = Solution extraction and recovery of calcium ion; settings: 1 g compound in 100 ml chloroform; sample pH 6.9; back-extraction with 2M ammonium chloride and 2M hydrochloric acid
Description: as §2

Compound	Amount of ions transferred [1]	Amount of ions transferred [2]	Logarithm of ion extraction equilibrium constant ([3]; Ba^2+)	Logarithm of ion extraction equilibrium constant ([3]; Ca^2+)	Logarithm of ion extraction equilibrium constant ([3]; K^+)	Logarithm of ion extraction equilibrium constant ([3]; Mg^2+)	Logarithm of ion extraction equilibrium constant ([3]; Na^+)	Logarithm of ion extraction equilibrium constant ([3]; Rb^+)	transferring ability for potassium ion [1]	transferring ability for calcium ion [2]	concentration of magnesium relative to the initial concentration [4]	recovery ratio of calcium ion [5]
CNc1ccc2oc(C[C@H]3O[C@@]4(CC[C@H]3C)O[C@H]([C@H](C)C(=O)c3ccc[nH]3)[C@H](C)C[C@H]4C)nc2c1C(=O)O [Compound A23187]	0.1 μ · mol	4.7 μ · mol	–	–	–	–	–	–	–	–	–	–
CN1CC(=O)N2CCC[C@H]2C(=O)NCC(=O)N[C@@H](CC(=O)OCc2ccccc2)C(=O)N(C)CC(=O)N2CCC[C@H]2C(=O)NCC(=O)N[C@@H](CC(=O)OCc2ccccc2)C1=O [Compound C-4, cyclo(glycyl-β-benzyl-L-aspartylsarcosyl-L-prolyl)2] (cyclo(D(OBn)[Sar]PGD(OBn)[Sar]PG))	0.3 μ · mol	4.8 μ · mol	–	–	–	–	–	–	–	–	–	–
CN1CC(=O)N2CCC[C@H]2C(=O)NCC(=O)N[C@@H](CCCCNC(=O)OCc2ccccc2)C1=O [Compound D-1, cyclo(glycyl-ε-benzyloxycarbonyl-L-lysyl-sarcosyl-L-prolyl)] (cyclo(GK(Cbz)[Sar]P))	0.1 μ · mol	0.4 μ · mol	1.9	1.7	1.2	1.2	1.1	1.2	virtually no transferring ability	virtually no transferring ability	–	–
CN1CC(=O)N2CCC[C@H]2C(=O)NCC(=O)N[C@@H](CCCNC(=O)OCc2ccccc2)C(=O)N(C)CC(=O)N2CCC[C@H]2C(=O)NCC(=O)N[C@@H](CCCNC(=O)OCc2ccccc2)C1=O [Compound C-2, cyclo(glycyl-δ-benzyloxycarbonyl-L-ornithyl-sarcosyl-L-prolyl)2] (cyclo(G[Orn](Cbz)[Sar]PG[Orn](Cbz)[Sar]P))	0.4 μ · mol	5.1 μ · mol	–	–	–	–	–	–	–	–	–	–
CN1CC(=O)N2CCC[C@H]2C(=O)NCC(=O)N[C@@H](CCCCNC(=O)OCc2ccccc2)C(=O)N(C)CC(=O)N2CCC[C@H]2C(=O)NCC(=O)N[C@@H](CCCCNC(=O)OCc2ccccc2)C1=O [Compound C-1, cyclo(glycyl-ε-benzyloxycarbonyl-L-lysyl-sarcosyl-L-prolyl)2] (cyclo(GK(Cbz)[Sar]PGK(Cbz)[Sar]P))	0.5 μ · mol	5.4 μ · mol	6.0	5.6	2.6	3.4	2.3	2.6	–	–	10^-3 times the initial concentration	95%
COC(=O)[C@@H]1CCCN1C(=O)CN(C)C(=O)[C@H](CCCCNC(=O)OCc1ccccc1)NC(=O)CNC(=O)[C@@H]1CCCN1C(=O)CN(C)C(=O)[C@H](CCCCNC(=O)OCc1ccccc1)NC(=O)CNC(=O)OC(C)(C)C [Compound E-1, tertiary butyloxycarbonylglycyl-ε-benzyloxycarbonyl-L-lysyl-sarcosyl-L-propyl-glycyl-ε-benzyloxycarbonyl-L-lysyl-sarcosyl-L-proline methyl ester] (Boc-GK(Cbz)[Sar]PGK(Cbz)[Sar]P-OMe)	0.2 μ · mol	0.3 μ · mol	1.3	1.1	0.9	0.9	0.9	0.9	virtually no transferring ability	virtually no transferring ability	–	–
CN1CC(=O)N2CCC[C@H]2C(=O)NCC(=O)N[C@@H](CCC(=O)OCc2ccccc2)C(=O)N(C)CC(=O)N2CCC[C@H]2C(=O)NCC(=O)N[C@@H](CCC(=O)OCc2ccccc2)C1=O [Compound C-3, cyclo(glycyl-γ-benzyl-L-glutamylsarcosyl-L-prolyl)2] (cyclo(E(OBn)[Sar]PGE(OBn)[Sar]PG))	0.3 μ · mol	4.9 μ · mol	–	–	–	–	–	–	–	–	–	–
